Results: US11286243B2 (GLOBAL BLOOD THERAPEUTICS, INC., priority 2018, dated 2022)

molecular target: T1, human ferroportin (Homo sapiens, UniProt Q9NP59); assay: In-vitro ferroportin internalization assay (luciferase reporter); format: cell-based; settings: average pEC50; stably-transfected CHO cell line expressing human ferroportin tagged to a luciferase reporter; 6 h incubation with test compounds
T1 construct: luciferase reporter (probably NanoLuc: read with the Nano-Glo Luciferase Assay System); expressed in transfected cells; host or cells: CHO cells, stably transfected, doxycycline-inducible expression
T1 sequence (Q9NP59 1-571): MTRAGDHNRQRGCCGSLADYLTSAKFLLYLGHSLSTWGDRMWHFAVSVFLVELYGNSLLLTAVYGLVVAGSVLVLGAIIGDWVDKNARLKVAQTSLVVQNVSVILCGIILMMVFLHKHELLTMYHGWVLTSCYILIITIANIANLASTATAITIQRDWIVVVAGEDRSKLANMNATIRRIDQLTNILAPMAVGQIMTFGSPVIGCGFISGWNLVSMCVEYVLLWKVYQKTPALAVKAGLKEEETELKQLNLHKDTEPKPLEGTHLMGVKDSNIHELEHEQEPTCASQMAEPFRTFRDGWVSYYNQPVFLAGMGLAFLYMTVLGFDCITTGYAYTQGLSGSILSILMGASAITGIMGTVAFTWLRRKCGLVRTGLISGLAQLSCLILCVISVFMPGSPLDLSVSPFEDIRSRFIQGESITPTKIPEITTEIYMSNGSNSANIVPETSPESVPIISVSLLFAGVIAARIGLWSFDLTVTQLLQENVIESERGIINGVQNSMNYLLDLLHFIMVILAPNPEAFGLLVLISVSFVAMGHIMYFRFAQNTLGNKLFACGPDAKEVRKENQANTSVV
Procedure: The protocol for this assay is generally as described in WO2018/128828, incorporated herein by reference in its entirety. Functional internalization of ferroportin protein was measured using a stably-transfected CHO cell line expressing the human ferroportin tagged to a luciferase reporter. Cells were plated for 24 h in the presence of ferric ammonium citrate (FAC). Ferroportin protein expression was induced with doxycycline for 24 h. The next day, the compounds were added. Test compounds were dissolved in DMSO. Cells were incubated with the test compounds for 6 h, and subsequently luciferase activity was measured using the Nano-Glo Luciferase Assay System and Glomax (Promega, Madison, Wis.).
The average pEC50 was determined for the test compounds.

**Q.** How did the pEC50 turn out when `Fc1cccnc1CNc1ncnc2sc(CCNCCc3nc4ccccc4[nH]3)nc12` [Compound 1, 2-(2-{[2-(1H-1,3-benzodiazol-2-yl)ethyl]amino}ethyl)-N-[(3-fluoropyridin-2-yl)methyl]-[1,3]thiazolo[5,4-d]pyrimidin-7-amine] was run?
**A.** The pEC50 was 7.8.

**Q.** For `Fc1cccnc1CNc1ncnc2oc(CCNCCc3nc4ccccc4[nH]3)nc12` [Compound 2, 2-(2-{[2-(1H-1,3-benzodiazol-2-yl)ethyl]amino}ethyl)-N-[(3-fluoropyridin-2-yl)methyl]-[1,3]oxazolo[5,4-d]pyrimidin-7-amine], which pEC50 is on record?
**A.** The pEC50 was 7.3.

**Q.** With `Fc1ccc2[nH]c(CCNCCc3nc4c(NCc5ncccc5F)ncnc4s3)nc2c1` [Compound 3, 2-(2-{[2-(5-fluoro-1H-1,3-benzodiazol-2-yl)ethyl]amino}ethyl)-N-[(3-fluoropyridin-2-yl)methyl]-[1,3]thiazolo[5,4-d]pyrimidin-7-amine] as the compound, how does the pEC50 read?
**A.** The pEC50 was 7.1.

**Q.** `c1ccc(CNc2ncnc3sc(CCNCCc4nc5ccccc5[nH]4)nc23)cc1` [Compound 4, 2-(2-{[2-(1H-1,3-benzodiazol-2-yl)ethyl]amino}ethyl)-N-benzyl-[1,3]thiazolo[5,4-d]pyrimidin-7-amine] was tested. Which pEC50 did it give?
**A.** The pEC50 was 6.6.

**Q.** How did the pEC50 turn out when `c1ccc(CNc2ncnc3sc(CCNCCc4nc5ccccc5[nH]4)nc23)nc1` [Compound 5, 2-(2-{[2-(1H-1,3-benzodiazol-2-yl)ethyl]amino}ethyl)-N-[(pyridin-2-yl)methyl]-[1,3]thiazolo[5,4-d]pyrimidin-7-amine] was run?
**A.** The pEC50 was 6.8.

**Q.** For `Clc1cccnc1CNc1ncnc2sc(CCNCCc3nc4ccccc4[nH]3)nc12` [Compound 6, 2-(2-{[2-(1H-1,3-benzodiazol-2-yl)ethyl]amino}ethyl)-N-[(3-chloropyridin-2-yl)methyl]-[1,3]thiazolo[5,4-d]pyrimidin-7-amine], which pEC50 is on record?
**A.** The pEC50 was 7.8.

**Q.** `Fc1cccnc1CNc1ncnc2sc(CCNCc3nc4ccccc4[nH]3)nc12` [Compound 7, 2-(2-{[(1H-1,3-benzodiazol-2-yl)methyl]amino}ethyl)-N-[(3-fluoropyridin-2-yl)methyl]-[1,3]thiazolo[5,4-d]pyrimidin-7-amine] was tested. Which pEC50 did it give?
**A.** The pEC50 was 6.7.

**Q.** How did the pEC50 turn out when `Fc1ccc(CNc2ncnc3sc(CCNCCc4nc5ccccc5[nH]4)nc23)nc1` [Compound 8, 2-(2-{[2-(1H-1,3-benzodiazol-2-yl)ethyl]amino}ethyl)-N-[(5-fluoropyridin-2-yl)methyl]-[1,3]thiazolo[5,4-d]pyrimidin-7-amine] was run?
**A.** Its pEC50 is 6.4.

**Q.** With `c1cnc(CNc2ncnc3sc(CCNCCc4nc5ccccc5[nH]4)nc23)nc1` [Compound 9, 2-(2-{[2-(1H-1,3-benzodiazol-2-yl)ethyl]amino}ethyl)-N-[(pyrimidin-2-yl)methyl]-[1,3]thiazolo[5,4-d]pyrimidin-7-amine] as the compound, how does the pEC50 read?
**A.** The pEC50 was 6.3.

**Q.** `CN(CCc1nc2ccccc2[nH]1)CCc1nc2c(NCc3ncccc3F)ncnc2s1` [Compound 10, 2-(2-{[2-(1H-1,3-benzodiazol-2-yl)ethyl](methyl)amino}ethyl)-N-[(3-fluoropyridin-2-yl)methyl]-[1,3]thiazolo[5,4-d]pyrimidin-7-amine] was tested. Which pEC50 did it give?
**A.** The pEC50 was 5.7.

**Q.** `COc1cccnc1CNc1ncnc2sc(CCNCCc3nc4ccccc4[nH]3)nc12` [Compound 11, 2-(2-{[2-(1H-1,3-benzodiazol-2-yl)ethyl]amino}ethyl)-N-[(3-methoxypyridin-2-yl)methyl]-[1,3]thiazolo[5,4-d]pyrimidin-7-amine] was tested. Which pEC50 did it give?
**A.** Its pEC50 is 6.7.

**Q.** `Cc1cccnc1CNc1ncnc2sc(CCNCCc3nc4ccccc4[nH]3)nc12` [Compound 12, 2-(2-{[2-(1H-1,3-benzodiazol-2-yl)ethyl]amino}ethyl)-N-[(3-methylpyridin-2-yl)methyl]-[1,3]thiazolo[5,4-d]pyrimidin-7-amine] was tested. Which pEC50 did it give?
**A.** Its pEC50 is 7.3.

**Q.** `Fc1cccnc1CNc1nccc2oc(CCNCCc3nc4ccccc4[nH]3)nc12` [Compound 13, 2-(2-{[2-(1H-1,3-benzodiazol-2-yl)ethyl]amino}ethyl)-N-[(3-fluoropyridin-2-yl)methyl]-[1,3]oxazolo[4,5-c]pyridin-4-amine] was tested. Which pEC50 did it give?
**A.** The pEC50 was 8.

**Q.** How did the pEC50 turn out when `Fc1cccnc1CNc1nccc2sc(CCNCCc3nc4ccccc4[nH]3)nc12` [Compound 14, 2-(2-{[2-(1H-1,3-benzodiazol-2-yl)ethyl]amino}ethyl)-N-[(3-fluoropyridin-2-yl)methyl]-[1,3]thiazolo[4,5-c]pyridin-4-amine] was run?
**A.** The pEC50 was 7.8.

**Q.** For `Fc1cccnc1CNc1ncnc2sc(CCNCCc3nc4c(F)cccc4[nH]3)nc12` [Compound 15, 2-(2-{[2-(4-fluoro-1H-1,3-benzodiazol-2-yl)ethyl]amino}ethyl)-N-[(3-fluoropyridin-2-yl)methyl]-[1,3]thiazolo[5,4-d]pyrimidin-7-amine], which pEC50 is on record?
**A.** The pEC50 was 6.8.

**Q.** With `Fc1cccnc1CNc1ncnc2sc(CCNCCc3nc4ccccc4o3)nc12` [Compound 16, 2-(2-{[2-(1,3-benzoxazol-2-yl)ethyl]amino}ethyl)-N-[(3-fluoropyridin-2-yl)methyl]-[1,3]thiazolo[5,4-d]pyrimidin-7-amine] as the compound, how does the pEC50 read?
**A.** Its pEC50 is 5.6.

**Q.** With `[N-]=[N+]=Nc1cccnc1CNc1ncnc2sc(CCNCCc3nc4ccccc4[nH]3)nc12` [Compound 17, N-[(3-azidopyridin-2-yl)methyl]-2-(2-{[2-(1H-1,3-benzodiazol-2-yl)ethyl]amino}ethyl)-[1,3]thiazolo[5,4-d]pyrimidin-7-amine] as the compound, how does the pEC50 read?
**A.** The pEC50 was 7.7.

**Q.** `COc1nc(NCc2ncccc2F)c2nc(CCNCCc3nc4ccccc4[nH]3)sc2n1` [Compound 18, 2-(2-{[2-(1H-1,3-benzodiazol-2-yl)ethyl]amino}ethyl)-N-[(3-fluoropyridin-2-yl)methyl]-5-methoxy-[1,3]thiazolo[5,4-d]pyrimidin-7-amine] was tested. Which pEC50 did it give?
**A.** The pEC50 was 5.7.

**Q.** Which pEC50 does the source give for `COc1cc2sc(CCNCCc3nc4ccccc4[nH]3)nc2c(NCc2ncccc2F)n1` [Compound 19, 2-(2-{[2-(1H-1,3-benzodiazol-2-yl)ethyl]amino}ethyl)-N-[(3-fluoropyridin-2-yl)methyl]-6-methoxy-[1,3]thiazolo[4,5-c]pyridin-4-amine] here?
**A.** Its pEC50 is 6.2.

**Q.** For `Fc1cccnc1CNc1ncnc2sc(C3CN(CCc4nc5ccccc5[nH]4)C3)nc12` [Compound 20, 2-{1-[2-(1H-1,3-benzodiazol-2-yl)ethyl]azetidin-3-yl}-N-[(3-fluoropyridin-2-yl)methyl]-[1,3]thiazolo[5,4-d]pyrimidin-7-amine], which pEC50 is on record?
**A.** The pEC50 was 7.5.

**Q.** Which pEC50 does the source give for `Nc1nc(NCc2ncccc2F)c2nc(CCNCCc3nc4ccccc4[nH]3)sc2n1` [Compound 21, 2-(2-{[2-(1H-1,3-benzodiazol-2-yl)ethyl]amino}ethyl)-N7-[(3-fluoropyridin-2-yl)methyl]-[1,3]thiazolo[5,4-d]pyrimidine-5,7-diamine] here?
**A.** The pEC50 was 6.2.

**Q.** With `C#CCCC1(CCC(=O)Nc2ccc3[nH]c(CCNCCc4nc5c(NCc6ncccc6F)ncnc5s4)nc3c2)N=N1` [Compound 22, 3-[3-(but-3-yn-1-yl)-3H-diazirin-3-yl]-N-[2-(2-{[2-(7-{[(3-fluoropyridin-2-yl)methyl]amino}-[1,3]thiazolo[5,4-d]pyrimidin-2-yl)ethyl]amino}ethyl)-1H-1,3-benzodiazol-5-yl]propanamide] as the compound, how does the pEC50 read?
**A.** The pEC50 was 6.5.

**Q.** Which pEC50 does the source give for `Oc1nc(NCc2ncccc2F)c2nc(CCNCCc3nc4ccccc4[nH]3)sc2n1` [Compound 23, 2-(2-{[2-(1H-1,3-benzodiazol-2-yl)ethyl]amino}ethyl)-7-{[(3-fluoropyridin-2-yl)methyl]amino}-[1,3]thiazolo[5,4-d]pyrimidin-5-ol] here?
**A.** Its pEC50 is 8.8.

**Q.** Which pEC50 does the source give for `CC(CNCCc1nc2ccccc2[nH]1)c1nc2c(NCc3ncccc3F)ncnc2s1` (stereo not drawn) [Compound 24, 2-(1-{[2-(1H-1,3-benzodiazol-2-yl)ethyl]amino}propan-2-yl)-N-[(3-fluoropyridin-2-yl)methyl]-[1,3]thiazolo[5,4-d]pyrimidin-7-amine] here?
**A.** The pEC50 was 5.8.

**Q.** `Fc1cccnc1CNc1ncnc2sc(C3(F)CN(CCc4nc5ccccc5[nH]4)C3)nc12` [Compound 25, 2-{1-[2-(1H-1,3-benzodiazol-2-yl)ethyl]-3-fluoroazetidin-3-yl}-N-[(3-fluoropyridin-2-yl)methyl]-[1,3]thiazolo[5,4-d]pyrimidin-7-amine] was tested. Which pEC50 did it give?
**A.** Its pEC50 is 6.3.

**Q.** Which pEC50 does the source give for `C[C@H](Cc1nc2c(NCc3ncccc3F)ncnc2s1)NCCc1nc2ccccc2[nH]1` [Compound 26, 2-[(2R)-2-{[2-(1H-1,3-benzodiazol-2-yl)ethyl]amino}propyl]-N-[(3-fluoropyridin-2-yl)methyl]-[1,3]thiazolo[5,4-d]pyrimidin-7-amine] here?
**A.** Its pEC50 is 6.5.

**Q.** How did the pEC50 turn out when `COC(=O)c1ccc2[nH]c(CCNCCc3nc4c(NCc5ncccc5F)ncnc4s3)nc2c1` [Compound 27, Methyl 2-(2-{[2-(7-{[(3-fluoropyridin-2-yl)methyl]amino}-[1,3]thiazolo[5,4-d]pyrimidin-2-yl)ethyl]amino}ethyl)-1H-1,3-benzodiazole-5-carboxylate] was run?
**A.** The pEC50 was 6.2.
